Reference: patent publication US6916823B2, “Method of treatment of dopamine-related dysfunction” (Purdue Research Foundation, priority 2001, dated 2005)
Where two headings read alike, the source gives them in different places. Values belong to the molecule of their own block, whether it stands above or below them.

Experiments:
[1] = system: D1 and D2 dopamine receptors; assay: D1:D2 selectivity; format: binding
unilateral 6-OHDA rats [2] = assay: rat unilateral 6-OHDA rotation model of Parkinson's disease; format: in vivo; conditions: for increase in rotation relative to vehicle: 10 h; for rotation during continuous administration: osmotic minipump s.c.
Description: Summary. In the rat unilateral 6-hydroxydopamine (6-OHDA) rotation model of Parkinson's disease, 6-OHDA is infused unilaterally into the medial forebrain bundle, the substantia nigra, or the striatum. […] When challenged with direct-acting dopamine receptor agonists, unilateral 6-OHDA rats turn contralaterally (away from the side of the lesion) because of the increased sensitivity of the postsynaptic dopamine receptors on the lesioned side. The experiments described below examine tolerance induced by the full D1 agonist, dinapsoline, using the 6-OHDA model.
Subjects. Adult male Sprague-Dawley Rats (Hilltop Laboratories, Chatsworth, Calif.), weighing between 280 and 320 grams, were used as subjects. Animals were housed individually with food and water available ad libitum, except as noted below. The light:dark schedule was 12 h:12 h, and testing was performed during the light cycle. All methods adhere to the guidelines in the Guide for the Care and Use of Experimental Animals published by the National Institutes of Health (Pub. 85-23, 1985).
Surgery. Rats were pretreated with 25 mg/kg desipramine (s.c.) approximately 30 minutes before surgery. Rats were anesthetized by inhalation of isoflurane (1.5 to 4.0%) and placed in a stereotaxic apparatus. An infusion cannula was placed in the medial forebrain bundle at the coordinates A.P. −3.8 mm, M.L. −1.5 mm, and D.V. −3.8 mm relative to bregma according to the atlas of Paxinos and Watson (1986). Ten micrograms of 6-OHDA (6-hydroxydopamine; Sigma Chemical Co., St. Louis, Mo.) in a volume of 4 μL was infused at a rate of 0.5 μL/min in a vehicle of 0.01% ascorbate. After a 14-day recovery period, rats were prescreened for rotation in response to d-amphetamine (5 mg/kg) and to apomorphine (0.3 mg/kg) 1 week later. Animals that responded to both d-amphetamine (>800 rotations in 3 h) and apomorphine (>100 rotations in 1 h) were retained for further study.
Testing of compounds began on day 28 postsurgery in each case. A new group of 6-OHDA-lesioned rats was used for each new study. In some studies, rats were implanted with a subcutaneous 14-day osmotic minipump (model 2 ML2, Alza, Palo Alto, Calif.) with a flow rate of 5.0 μL/h. The rats were re-anesthetized with 1.5 to 4% isoflurane, a small incision was made on the back of the neck, and the minipump was placed subcutaneously in the cavity. The incision was closed with sterile wound clips. Before implantation, minipumps were incubated in sterile saline (37° C.) to ensure outflow at the time of implantation. The minipumps were used to administer dinapsoline, or vehicle (50% dimethyl sulfoxide (DMSO), 12.5% ascorbic acid).
Apparatus, Procedure, and Statistics. Rats were tested for rotation in automated rotation chambers (Rotoscan, Accuscan, Columbus, Ohio). The apparatus consisted of a cylindrical Plexiglas chamber 30 cm in diameter in which the animal is fitted to a harness attached to a flexible rod connected to a rotating microswitch. Animals were allowed to habituate to chambers for 30 minutes before drug treatment in each case. Data were collected for 1 to 12 h after injection, using 15 minute time bins. Treatments were compared using one-way and repeated measures of analysis of variance (ANOVA), as appropriate; post hoc analysis was performed with Dunnett's test.
Acute Dinapsoline Administration. Beginning 1 week after the screening dose with apomorphine, subjects (n=12) were tested once per week with dinapsoline (0.02, 0.2, or 2 mg/kg) or vehicle (s.c.) using a counterbalanced design, and rotation behavior was monitored for 10 h. After the final day of testing, rats were euthanized and brains were removed for subsequent assessment of dopamine depletion. In the oral dosing experiments, a separate group of subjects (n=8) received dinapsoline (0.02, 0.2, or 2 mg/kg) or vehicle once per week using a counterbalanced design. Rats were fasted for 16 h before dosing with oral gavage, and rotation behavior was monitored for 10 h.

[3] = in vivo; cited from earlier work
unilateral 6-OHDA rats [4] = conditions: cited from earlier work; for efficacy in Parkinson's disease models: e.g. unilateral 6-OHDA-lesion rodent model
D2 receptors = assay: D2 agonist properties
[5] = target: T1, cloned expressed primate D1A receptors (Macaca mulatta, UniProt O77680); assay: cAMP production in C-6-mD1 cells; format: cell-based; conditions: for agonist activity (intrinsic activity): C-6-mD1 cells / cloned expressed primate D1A receptors, relative to dopamine
T1 construct: expressed in transfected cells; host or cells: C-6 cells (C-6-mD1)
T1 sequence (O77680 whole entry): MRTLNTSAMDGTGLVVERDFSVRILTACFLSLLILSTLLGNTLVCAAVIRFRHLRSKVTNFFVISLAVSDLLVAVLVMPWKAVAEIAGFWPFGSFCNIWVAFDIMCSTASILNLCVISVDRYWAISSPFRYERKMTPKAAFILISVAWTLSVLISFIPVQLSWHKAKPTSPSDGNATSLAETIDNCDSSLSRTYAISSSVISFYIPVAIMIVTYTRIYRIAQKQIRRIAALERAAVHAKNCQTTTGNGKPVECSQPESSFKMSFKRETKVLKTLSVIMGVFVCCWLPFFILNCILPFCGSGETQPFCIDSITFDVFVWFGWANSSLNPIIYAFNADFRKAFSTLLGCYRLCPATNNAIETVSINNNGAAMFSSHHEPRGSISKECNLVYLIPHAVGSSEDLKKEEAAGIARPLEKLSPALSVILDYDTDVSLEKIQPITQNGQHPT

D1 receptors = target: T2, D1 receptors (Rattus norvegicus, UniProt P18901); assay: cAMP production in rat striatum; format: biochemical; conditions: for agonist activity (intrinsic activity): rat striatum / rat striatal membranes, relative to dopamine
T2 construct: increase cAMP production in rat striatum and C-6-mD1 cells; from tissue; host or cells: rat striatum (striatal membranes)
T2 sequence (P18901 whole entry): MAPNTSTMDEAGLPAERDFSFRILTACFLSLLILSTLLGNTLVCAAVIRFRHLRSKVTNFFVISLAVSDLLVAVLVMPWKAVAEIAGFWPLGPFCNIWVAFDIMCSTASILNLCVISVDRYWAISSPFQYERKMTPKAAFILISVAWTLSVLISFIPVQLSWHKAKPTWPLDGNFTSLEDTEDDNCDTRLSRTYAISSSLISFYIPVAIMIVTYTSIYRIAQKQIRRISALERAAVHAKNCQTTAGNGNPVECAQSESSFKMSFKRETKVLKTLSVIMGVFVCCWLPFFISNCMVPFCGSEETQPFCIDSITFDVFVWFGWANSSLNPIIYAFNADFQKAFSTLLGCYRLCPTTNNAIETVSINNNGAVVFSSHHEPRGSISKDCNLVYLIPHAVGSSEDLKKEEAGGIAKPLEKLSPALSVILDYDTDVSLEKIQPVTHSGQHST

[6] = target: T3, rat striatal D1 receptors (Rattus norvegicus, UniProt P18901); assay: binding affinity to D1 receptors, competition with SCH23390
T3 construct: increase cAMP production in rat striatum and C-6-mD1 cells; from tissue; host or cells: rat striatum (striatal membranes)
T3 sequence (P18901 whole entry): as above
Description: Experiments have been conducted to determine the binding affinity of dinoxyline to D1 receptors.

[7] = A-77636 0.3 mg/kg s.c. alone, 3 h

SMILES: NC[C@@H]1O[C@H](C23CC4CC(CC(C4)C2)C3)Cc2c1ccc(O)c2O [Compound A-77636, reference compound]
- D1:D2 selectivity [1]: more strongly D1 selective than dinapsoline
- duration of rotation (unilateral 6-OHDA rats [2]; 1 mg/kg s.c.): approximately 18 h
- behavioral tolerance (unilateral 6-OHDA rats [2]; 1 mg/kg s.c. once daily for 14 days, 3 h rotation): dramatic behavioral tolerance
- rotation on second day of dosing (unilateral 6-OHDA rats [2]; 1 mg/kg s.c. once daily, day 2 vs day 1): significantly less rotation than on the first day
- amount of rotation on fourth day of dosing (unilateral 6-OHDA rats [2]; 1 mg/kg s.c. once daily, day 4, complete tolerance): no greater than that seen with vehicle
- rotation in naive animals (unilateral 6-OHDA rats [2]; 1 mg/kg s.c., first day): robust rotation
- tolerance on day 3 challenge (unilateral 6-OHDA rats [2]; A-77636 0.3 mg/kg s.c. alone after 2 days A-77636 with or without quinpirole): equal tolerance in both groups
- rotational response day 1 (unilateral 6-OHDA rats [2]; [7]): maximal rotational response
- tolerance by day 2 (unilateral 6-OHDA rats [2]; [7]): significant tolerance
- plasma half-life [3]: > 6 h
- duration of action (unilateral 6-OHDA rats [4]; Asin and Wirtshafter, 1993): 18 h

SMILES: Oc1ccc2c(c1O)Cc1cccc3c1[C@H]2CNC3 [dinapsoline]
- D1:D2 selectivity [1]: five-fold
- increase in rotation relative to vehicle (unilateral 6-OHDA rats [2]; 0.02 mg/kg s.c.): but not at 0.02 mg/kg
- duration of rotation (unilateral 6-OHDA rats [2]; 0.2 mg/kg s.c.): about 5 h
- increase in rotation relative to vehicle (unilateral 6-OHDA rats [2]; 0.2 mg/kg s.c.): Statistically significant increases
- duration of rotation (unilateral 6-OHDA rats [2]; 2 mg/kg oral): 7 h
- increase in rotation versus baseline (unilateral 6-OHDA rats [2]; 2 mg/kg oral): significantly different from baseline
- change in rotational response over time (unilateral 6-OHDA rats [2]; 2 mg/kg s.c. once daily, 14 days): significant increase in response over time
- behavioral tolerance (unilateral 6-OHDA rats [2]; 2 mg/kg s.c. once or twice daily, 14 days): no evidence for behavioral tolerance
- change in rotational response over time (unilateral 6-OHDA rats [2]; 2 mg/kg s.c. twice daily, 14 days): significant increase in response over time
- increase in rotation relative to vehicle (unilateral 6-OHDA rats [2]; 2.0 mg/kg s.c.): Statistically significant increases
- rotational behavior (cumulative rotation over 10 h) (unilateral 6-OHDA rats [2]; acute 0.02, 0.2, 2 mg/kg s.c.): robust, dose-dependent rotational behavior
- rotation (cumulative over 10 h) (unilateral 6-OHDA rats [2]; acute oral 0.02, 0.2, 2 mg/kg, response not dose-dependent): robust rotation
- rotation after challenge dose 0.2 mg/kg s.c. on day 14 (unilateral 6-OHDA rats [2]; after 0.6 mg/kg/day by minipump): no rotation
- rotation after challenge dose 0.2 mg/kg s.c. on day 14 (unilateral 6-OHDA rats [2]; after 6 mg/kg/day by minipump): no rotation
- difference between groups on dinapsoline-alone challenge (unilateral 6-OHDA rats [2]; day 7, after 6 days dinapsoline with or without raclopride): no difference was observed
- rotation during continuous administration (unilateral 6-OHDA rats [2]; highest dose (6 mg/kg/day)): brief behavioral response to which complete tolerance developed by 24 h
- rotation during continuous administration (unilateral 6-OHDA rats [2]; lower doses (0.006, 0.06, 0.6 mg/kg/day)): no evidence of rotation
- D2 agonist properties (D2 receptors): some D2 agonist properties
- efficacy in Parkinson's disease models (unilateral 6-OHDA rats [4]): efficacious

SMILES: CCN1CCC[C@H]1CNC(=O)c1c(O)c(Cl)cc(Cl)c1OC [raclopride, reference compound]
- effect of daily coadministration on rotational response to dinapsoline (unilateral 6-OHDA rats [2]; raclopride 2 mg/kg s.c. with dinapsoline 2 mg/kg s.c., days 1 through 6): no significant difference
- effect of antagonist pretreatment on rotational response to dinapsoline (unilateral 6-OHDA rats [2]; raclopride 2 mg/kg s.c., dinapsoline 0.2 mg/kg s.c., 3 h): did not reduce
- effect of antagonist pretreatment on rotational response to dinapsoline (unilateral 6-OHDA rats [2]; raclopride 2 mg/kg s.c., dinapsoline 2 mg/kg s.c., 3 h): did not reduce
- effect on rotation produced by quinpirole (unilateral 6-OHDA rats [2]; raclopride 2 mg/kg s.c., quinpirole 0.25 mg/kg s.c., data not shown): blocked completely

SMILES: Oc1cc2c(cc1O)C(c1ccccc1)CNCC2 (single isomer, unassigned; (+)) [(+)-SKF-38393, reference compound]
- agonist activity (intrinsic activity) [5]: partial agonist

- D1:D2 selectivity [1]: ten-fold
- agonist activity (intrinsic activity) [5]: full agonist
- agonist activity (intrinsic activity) (D1 receptors): full agonist
- D2 agonist properties (D2 receptors): some D2 agonist properties
SMILES: Oc1cc2c(cc1O)[C@H]1c3ccccc3CN[C@@H]1CC2 (stereo in doubt) [dihydrexidine, (+)-trans-10,11-dihydroxy-5,6,6a,7,8,12b-hexahydrobenzo[a]phenanthridine]
- efficacy in Parkinson's disease models (unilateral 6-OHDA rats [4]): efficacious

SMILES: CN1CCc2cc(Cl)c(O)cc2[C@@H](c2ccccc2)C1 [SCH-23390, reference compound]
- duration of action (unilateral 6-OHDA rats [2]; in our assay): approximately 3 h

- agonist activity (intrinsic activity) ([5]; hydrobromide): full agonist activity
- EC50 ([5]; C-6-mD1 cells, read-out: EC50 in stimulating synthesis of cAMP via D1 receptors): < 30 nM
- affinity for dopamine D1 receptors labeled with [3H]SCH23390 ([6]; compared with dihydrexidine): high affinity
- nH of competition curve ([6]; competition with SCH23390): ca. 0.7
- Ki ([6]; rat striatal D1 receptors, read-out: K0.5 (affinity)): < 5 nM
- agonist activity (intrinsic activity) (D1 receptors; hydrobromide): full agonist activity
- EC50 (D1 receptors; rat striatum, read-out: EC50 in stimulating synthesis of cAMP via D1 receptors): < 30 nM
- D2 agonist properties (D2 receptors): some D2 agonist properties
SMILES: Br.Oc1ccc2c(c1O)Oc1cccc3c1C2CNC3 (racemic) [dinoxyline, (±)-8,9-dihydroxy-1,2,3,11b-tetrahydrochromeno[4,3,2-de]isoquinoline hydrobromide]
- D1:D2 selectivity [1]: equally high affinity for both types of receptors
- efficacy in Parkinson's disease models (unilateral 6-OHDA rats [4]): efficacious
